Source: patent publication US20120015961A1, “ISOTHIOUREA DERIVATIVES OR ISOUREA DERIVATIVES HAVING BACE1 INHIBITORY ACTIVITY” (SHIONOGI & CO., LTD., priority 2009, published 2012)

How the values were obtained:
Recombinant human BACE1 = molecular target: T1, Recombinant human BACE1 (Homo sapiens, UniProt P56817); experiment: Assay of BACE1 inhibiting activity; assay type: biochemical; conditions: 50% inhibitory concentration against enzymatic activity, pH 5.0, 30° C., 3 hours
T1 construct: purchased R&D Systems
Method: 48.5 μL of substrate peptide solution (Biotin-XSEVNLDAEFRHDSGC-Eu: Xεε-amino-n-capronic acid, Eu=Europium cryptate) was added to each well of 96-hole half-area plate (a black plate: Costar Corporation), and after addition of 0.5 μl of the test compound (dissolved in […]) and 1 μl of Recombinant human BACE1 (R&D Systems), the reaction mixture was incubated at 30° C. for 3 hours. The substrate peptide was synthesized by reacting Cryptate TBPCOOH mono SMP (CIS bio international) with Biotin-XSEVNLDAEFRHDSGC (Peptide Institute, Inc.). The final concentrations of the substrate peptide and Recombinant human BACE1 were adjusted to 18 nM and 7.4 nM respectively, and the reaction was performed in sodium acetate buffer (50 mM sodium acetate, pH 5.0, 0.008% Triton X-100). After the completion of reaction, 50 μl of 8.0 μg/ml Streptavidin-XL665 (CIS bio international) dissolved in phosphate buffer (150 mM K2HPO4—KH2PO4, pH 7.0, 0.008% Triton X-100, 0.8 M KF) was added to each well and left stand at 30° C. for an hour. Then, fluorescence intensity was measured (excitation wavelength: 320 nm, measuring wavelength: 620 nm and 665 nm) using Wallac 1420 multilabel counter (Perkin Elmer life sciences). Enzymatic activity was determined from counting ratio of each wavelength (10,000×Count 665/Count 620) and 50% inhibitory concentration against the enzymatic activity was calculated.

[1] = test system: Neuroblastoma SH-SY5Y cells (SH/APPwt) with human wild-type β-APP excessively expressed; experiment: Measurement of β-amyloid (Aβ) production inhibitory effect in cell; assay type: cell-based; conditions: amount needed to inhibit Aβ production by 50%, 24 hours incubation, Amyloid β1-40 HTRF
Method: Neuroblastoma SH-SY5Y cells (SH/APPwt) with human wild-type β-APP excessively expressed therein were prepared at 8×10^5 cells/mL, and 150 μl portions thereof were inoculated into each well of a 96-well culture plate (Falcon). The cells were cultured for 2 hours at 37° C. in a 5% gaseous carbon dioxide incubator. Then, a solution which had been preliminarily prepared by adding and suspending the test compound (DMSO (dimethyl sulfoxide) solution) so as to be 2 μl/50 μl medium was added to the cell sap. Namely, the final DMSO concentration was 1%, and the amount of the cell culture was 200 μl. After the incubation was performed for 24 hours from the addition of the test compound, 100 μl of the culture supernatant was collected from each fraction. The amount of the Aβ in each fraction was measured.
The […] was measured as follows. 10 μl of a homogeneous time resolved fluorescence (HTRF) measurement reagent (Amyloid β1-40 peptide; IBA Molecular Holding, S.A.) and 10 μl of the culture supernatant were put into a 384-well half area microplate (black microplate, Costar) and mixed with each other, and then left standing overnight at 4° C. while the light was shielded. Then, the fluorescence intensity (excitation wavelength: 337 nm, measurement wavelength: 620 nm and 665 nm) was measured with a Wallac 1420 multilabel counter (Perkin Elmer life sciences). The Aβ amount was determined from the count rate at each measurement wavelength (10000×Count 665/Count 620), and the amount needed to inhibit Aβ production by 50% (IC50) was calculated from at least six different dosages.

T1 sequence (P56817 46-501): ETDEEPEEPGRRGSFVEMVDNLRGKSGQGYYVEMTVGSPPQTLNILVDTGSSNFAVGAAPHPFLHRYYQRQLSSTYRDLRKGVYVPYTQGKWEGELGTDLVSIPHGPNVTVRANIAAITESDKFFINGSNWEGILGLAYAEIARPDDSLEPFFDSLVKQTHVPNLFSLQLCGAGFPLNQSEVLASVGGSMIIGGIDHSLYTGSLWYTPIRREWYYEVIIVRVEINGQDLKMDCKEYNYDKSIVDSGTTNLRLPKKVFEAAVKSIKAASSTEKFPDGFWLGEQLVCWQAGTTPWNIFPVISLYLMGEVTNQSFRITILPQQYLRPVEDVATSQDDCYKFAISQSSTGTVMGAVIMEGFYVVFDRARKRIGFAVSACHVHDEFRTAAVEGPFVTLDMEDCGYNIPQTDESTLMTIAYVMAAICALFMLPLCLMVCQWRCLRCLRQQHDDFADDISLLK

SMILES	IC50 (Recombinant human BACE1)	IC50 ([1]; Homo sapiens, SH-SY5Y, 24 h)	IC50 [1]
CC#CCOc1cnc(C(=O)Nc2cccc(C/N=C(/N)SCc3cccnc3)c2)cn1 [Compound 10]	≤ 1000 nM	≤ 1000 nM	
CC#CCOc1cnc(C(=O)Nc2cccc(C3(/N=C(/N)SC)CC3)c2)cn1 [Compound 14]	≤ 1000 nM	≤ 1000 nM	
CC#CCOc1cnc(C(=O)Nc2ccc(F)c(C/N=C(/N)SC)c2)cn1 [Compound 16]	≤ 1000 nM	≤ 1000 nM	
CC#CCOc1cnc(C(=O)Nc2cccc(C/N=C(/N)SCCCO)c2)cn1 [Compound 17]	≤ 1000 nM	≤ 1000 nM	
CC#CCOc1cnc(C(=O)Nc2cccc(C(/N=C(/N)SC)c3ccc(OC)cc3)c2)cn1 (centres unmarked) [Compound 21]	≤ 1000 nM	≤ 1000 nM	
COc1ccc(C(/N=C(/N)SC)c2cccc(NC(=O)c3ncc(Cl)cc3Cl)c2)cc1 (centres unmarked) [Compound 22]		≤ 1000 nM	
COc1ccc(C(/N=C(/N)SC)c2cccc(NC(=O)c3ccc(C#N)cn3)c2)cc1 (centres unmarked) [Compound 23]		≤ 1000 nM	
COc1ccc(C(/N=C(/N)SC)c2cccc(NC(=O)c3cnc(OC)cn3)c2)cc1 (centres unmarked) [Compound 24]		≤ 1000 nM	
COc1cnc(C(=O)Nc2ccc(F)c(C(C)/N=C(/N)SC)c2)cn1 (centres unmarked) [Compound 26]		≤ 1000 nM	
CO/C(N)=N\Cc1cc(NC(=O)c2cnc(OC)cn2)ccc1F [Compound 43]		≤ 1000 nM	
CO/C(N)=N\C(c1ccc(OC)cc1)c1cccc(NC(=O)c2cnc(OC)cn2)c1 (centres unmarked) [Compound 58]	≤ 1000 nM	18 nM	
CC#CCOc1cnc(C(=O)Nc2cccc(C(C)(C)/N=C(/N)SC)c2)cn1 [Compound 64]		≤ 1000 nM	
CC#CCOc1cnc(C(=O)Nc2ccc(Oc3ccccc3)c(C/N=C(/N)SC)c2)cn1 [Compound 68]	≤ 1000 nM	≤ 1000 nM	
CC#CCOc1cnc(C(=O)Nc2ccc(Oc3cccc(OC)c3)c(C/N=C(/N)SC)c2)cn1 [Compound 70]	≤ 1000 nM	≤ 1000 nM	
CO/C(N)=N/C(C)c1cccc(NC(=O)c2cnc(OC)cn2)c1 (centres unmarked) [Compound 83]		≤ 1000 nM	
CO/C(N)=N/C(C)c1cc(NC(=O)c2cnc(OC)cn2)ccc1F (centres unmarked) [Compound 85]		≤ 1000 nM	
CO/C(N)=N\C(c1ccc(Cl)cc1)c1cccc(NC(=O)c2cnc(C)cn2)c1 (centres unmarked) [Compound 90]		≤ 1000 nM	
CO/C(N)=N\C(c1ccc(Cl)cc1)c1cccc(NC(=O)c2cnc(OC)cn2)c1 (centres unmarked) [Compound 92]	≤ 1000 nM	≤ 1000 nM	
CO/C(N)=N\C(c1ccc(Cl)cc1)c1cccc(NC(=O)c2ccc(Cl)cn2)c1 (centres unmarked) [Compound 93]	≤ 1000 nM	≤ 1000 nM	
CC#CCOc1cnc(C(=O)Nc2cccc(C(/N=C(/N)OC)c3ccc(Cl)cc3)c2)cn1 (centres unmarked) [Compound 94]	32 nM	≤ 1000 nM	
COC(=N)NC(c1ccc(OC(C)C)cc1)c1cccc(NC(=O)c2ccc(C#N)cn2)c1 (centres unmarked) [Compound 95]	≤ 1000 nM	≤ 1000 nM	
COC(=N)NC(c1ccc(OCc2ccccc2)cc1)c1cccc(NC(=O)c2ccc(C#N)cn2)c1 (centres unmarked) [Compound 96]	≤ 1000 nM	≤ 1000 nM	
[2H]C([2H])([2H])Oc1cnc(C(=O)Nc2cccc(C3(/N=C(/N)OC)CC3)c2)cn1 [Compound 97]	≤ 1000 nM	≤ 1000 nM	
CO/C(N)=N/C(C)(c1ccc(OC)cc1)c1cccc(NC(=O)c2ccc(C#N)cn2)c1 (centres unmarked) [Compound 98]	≤ 1000 nM	≤ 1000 nM	
[2H]C([2H])([2H])Oc1ccc(C(NC(=N)OC)c2cccc(NC(=O)c3ccc(C#N)cn3)c2)cc1 (centres unmarked) [Compound 102]	≤ 1000 nM	≤ 1000 nM	

More lines, now with the values ahead:

IC50 (Recombinant human BACE1)	IC50 ([1]; Homo sapiens, SH-SY5Y, 24 h)	IC50 [1]	SMILES
≤ 1000 nM	≤ 1000 nM		CO/C(N)=N/C(C)(c1ccc(F)cc1)c1cccc(NC(=O)c2ccc(C#N)cn2)c1 (single isomer, unassigned) [Compound 101]
	≤ 1000 nM		CS/C(N)=N\C(C)c1cc(NC(=O)c2ccc(C#N)cn2)ccc1F (centres unmarked) [Compound 27]
	≤ 1000 nM		CO/C(N)=N/Cc1cccc(NC(=O)c2ccc(C#N)cn2)c1 [Compound 33]
	≤ 1000 nM		CCCO/C(N)=N\Cc1cccc(NC(=O)c2ccc(C#N)cn2)c1 [Compound 34]
	≤ 1000 nM		COCCO/C(N)=N\Cc1cccc(NC(=O)c2ccc(C#N)cn2)c1 [Compound 35]
	≤ 1000 nM		COCCCO/C(N)=N/Cc1cccc(NC(=O)c2ccc(C#N)cn2)c1 [Compound 37]
	≤ 1000 nM		CO/C(N)=N\Cc1cc(NC(=O)c2ccc(C#N)cn2)ccc1F [Compound 42]
	≤ 1000 nM		CO/C(N)=N\C1(c2cc(NC(=O)c3ccc(C#N)cn3)ccc2F)CC1 [Compound 46]
	≤ 1000 nM		CO/C(N)=N\C1(c2cc(NC(=O)c3cnc(OC)cn3)ccc2F)CC1 [Compound 47]
≤ 1000 nM	≤ 1000 nM		CO/C(N)=N/C(c1cccc(F)c1)c1cccc(NC(=O)c2ccc(C#N)cn2)c1 (centres unmarked) [Compound 51]
≤ 1000 nM	≤ 1000 nM		CO/C(N)=N\[C@H](c1ccc(F)cc1)c1cccc(NC(=O)c2ccc(C#N)cn2)c1 [Compound 52]
≤ 1000 nM	≤ 1000 nM		CO/C(N)=N/C(c1cccc(NC(=O)c2ccc(C#N)cn2)c1)c1cccc(OC)c1 (centres unmarked) [Compound 53]
≤ 1000 nM	≤ 1000 nM		CO/C(N)=N\C(c1cccc(NC(=O)c2ccc(C#N)cn2)c1)c1ccc2c(c1)CCO2 (centres unmarked) [Compound 54]
≤ 1000 nM	≤ 1000 nM		CO/C(N)=N\C(c1cccc(NC(=O)c2ccc(C#N)cn2)c1)c1ccc(OC)c(F)c1 (centres unmarked) [Compound 55]
≤ 1000 nM	≤ 1000 nM		CO/C(N)=N\C(c1ccc(OC)cc1)c1cccc(NC(=O)c2ccc(C#N)cn2)c1 (centres unmarked) [Compound 57]
≤ 1000 nM	≤ 1000 nM		CO/C(N)=N\c1cccc2ccc(NC(=O)c3ccc(C#N)cn3)cc12 [Compound 75]
≤ 1000 nM	≤ 1000 nM		CS/C(N)=N\c1c(C)ccc2ccc(NC(=O)c3ccc(C#N)cn3)cc12 [Compound 79]
	≤ 1000 nM		CO/C(N)=N/C(C)c1cccc(NC(=O)c2ccc(C#N)cn2)c1 (centres unmarked) [Compound 82]
	≤ 1000 nM		CO/C(N)=N/C(C)c1cc(NC(=O)c2ccc(C#N)cn2)ccc1F (centres unmarked) [Compound 84]
≤ 1000 nM		24 nM	CO/C(N)=N/C(C)(c1ccc(F)cc1)c1cccc(NC(=O)c2ccc(C#N)cn2)c1 (centres unmarked) [Compound 88]
≤ 1000 nM	≤ 1000 nM		CO/C(N)=N\C(c1ccc(Cl)cc1)c1cccc(NC(=O)c2ccc(C#N)cn2)c1 (centres unmarked) [Compound 91]
	≤ 1000 nM		CO/C(N)=N\C(c1cccc(NC(=O)c2ccc(C#N)cn2)c1)C(F)(F)F (centres unmarked) [Compound 99]
